Results taken from US10730848B2 (priority 2013, dated 2020).
Where two headings read alike, the source gives them in different places.

Tested on: anthrax lethal toxin (LT)
Assay: cells
Type: cell-based, murine
[1] = Mus musculus, RAW264.7, read-out: IC50 (In uM)
[2] = Mus musculus, RAW264.7, read-out: IC50, inhibition of LT-induced cell death

| Structure (SMILES) | protection of cells from LT (in words) | IC50 (Mus musculus, RAW264.7) [µM] | IC50 [1] [µM] | IC50 [µM] | IC50 [2] [µM] | fold less active than 1 |
| --- | --- | --- | --- | --- | --- | --- |
| Cc1cccc(C)c1NC(=O)NNCc1ccc(Br)cc1 [Compound 14, 2-(4-BROMOBENZYL)-N-(2,6-DIMETHYLPHENYL)HYDRAZINECARBOXAMIDE] | not protective | > 25 | > 25 | – | – | – |
| Cc1cccc(C)c1NC(=O)N/N=C/c1ccc(Br)c(Cl)c1 [Compound 13ab, N^1-(4-BROMO-3-CHLOROBENZYLIDENE)-N^4-(2,6-DIMETHYLPHENYL)SEMICARBAZONE] | – | 3.4 | – | – | – | – |
| Cc1cccc(C)c1NC(=O)N/N=C/c1ccc(C(C)C)cc1 [Compound 13m, N^1-(4-I-PROPYLBENZYLIDENE)-N^4-(2,6-DIMETHYLPHENYL)SEMICARBAZONE] | – | 6.5 | 6.48 | – | – | – |
| CC(C)(C)NC(=O)N/N=C/c1ccc(Br)cc1 [Compound 10, N^1-(4-BROMOBENZYLIDENE)-N^4-(TERT-BUTYL)SEMICARBAZONE] | not protective | > 25 | – | – | – | – |
| Cc1cccc(C)c1NC(=O)N/N=C/c1ccc(Cl)cc1 [Compound 13a, N^1-(4-CHLOROBENZYLIDENE)-N^4-(2,6-DIMETHYLPHENYL)SEMICARBAZONE] | – | 1.65 | 1.65 | 1.7 ± 0.2 | – | – |
| Cc1cccc(C)c1NC(=O)N(C)/N=C/c1ccc(Br)cc1 [Compound 16, N^1-2-(4-BROMOBENZYLIDENE)-N^4-(2,6-DIMETHYLPHENYL)1-METHYLHYDRAZINECARBOXAMIDE] | – | 1.96 | 1.96 | – | 2 | – |
| Cc1ccc(/C=N/NC(=O)Nc2c(C)cccc2C)cc1F [Compound 13d, N^1-(3-FLUORO-4-METHYLBENZYLIDENE)-N^4-(2,6-DIMETHYLPHENYL)SEMICARBAZONE] | – | 1.8 | 1.81 | – | – | – |
| C#Cc1ccc(/C=N/NC(=O)Nc2c(C)cccc2C)cc1 [Compound 13o, N^1-(4-ETHYNYLBENZYLIDENE)-N^4-(2,6-DIMETHYLPHENYL)SEMICARBAZONE] | – | 1.7 | 1.69 | – | – | – |
| CCc1ccc(/C=N/NC(=O)Nc2c(C)cccc2C)cc1 [Compound 13l, N^1-(4-ETHYLBENZYLIDENE)-N^4-(2,6-DIMETHYLPHENYL)SEMICARBAZONE] | – | 3 | 3.02 | – | – | – |
| Cc1cc(C)c(NC(=O)N/N=C/c2ccc(Br)cc2)c(C)c1 [Compound 9b, N^1-(4-BROMOBENZYLIDENE)-N^4-(2,4,6-DIMETHYLPHENYL)SEMICARBAZONE] | – | 12.6 | 12.6 | – | – | approximately 10 fold |
| COc1cc(OC)c(/C=N/NC(=O)Nc2c(C)cccc2C)c(OC)c1 [Compound 13h, N^1-(2,4,6-TRIMETHOXYBENZYLIDENE)-N^4-(2,6-DIMETHYLPHENYL)SEMICARBAZONE] | – | > 25 | > 25 | – | – | – |
| Cc1cccc(C)c1/N=C(\N)N/N=C/c1ccc(Br)cc1 [Compound 22, 2-(4-BROMOBENZYLIDENE)-N′-(2,6-DIMETHYLPHENYL)HYDRAZINECARBOXIMIDAMIDE] | – | – | – | – | 13.8 | – |
| Cc1cccc(C)c1NC(=O)N/N=C/c1c(F)cc(Br)cc1F [Compound 13y, N^1-(4-BROMO-2,6-DIFLUOROBENZYLIDENE)-N^4-(2,6-DIMETHYLPHENYL)SEMICARBAZONE] | – | 3.9 | 3.95 | 4 ± 0.8 | – | – |
| Cc1cccc(C)c1NC(=O)N/N=C/c1ccc(Br)cc1F [Compound 2, N^1-(4-BROMO-2-FLUOROBENZYLIDENE)-N^4-(2,6-DIMETHYLPHENYL)SEMICARBAZONE] | mid-nanomolar levels | 0.4 | 0.4 | – | 0.4 | – |
| Cc1cccc(C)c1NC(=O)NN=Cc1ccccc1 [Compound 12, benzaldehyde N-(2,6-dimethylphenyl)semicarbazone, reference compound] | showed almost no activity against LT | > 25 | – | – | – | – |
| Cc1cccc(C)c1NC(=O)N/N=C/c1ccco1 [Compound 13u, N^1-(FURAN-2-YLMETHYLENE)-N^4-(2,6-DIMETHYLPHENYL)SEMICARBAZONE] | – | > 25 | – | – | – | – |
| Cc1cccc(C)c1NC(=O)N/N=C/c1cccc(C(F)(F)F)c1Cl [Compound 13b, N^1-(2-CHLORO-3-TRIFLUOROMETHYLBENZYLIDENE)-N^4-(2,6-DIMETHYLPHENYL)SEMICARBAZONE] | – | > 25 | > 25 | – | – | – |
| C#CCN(/N=C/c1ccc(N=[N+]=[N-])cc1)C(=O)Nc1c(C)cccc1C [Compound 28, 2-(4-Azidobenzylidene)-N-(2,6-dimethylphenyl)-1-(prop-2-yn-1-yl)hydrazinecarboxamide] | did not offer any protection | > 25 | – | – | – | – |
| Cc1cccc(C)c1NC(=O)N/N=C/c1ccncc1 [Compound 13t, N^1-(PYRIDIN-4-YLMETHYLENE)-N^4-(2,6-DIMETHYLPHENYL)SEMICARBAZONE] | – | > 25 | – | – | – | – |
| C#CCN(/N=C/c1ccc(Br)cc1)C(=O)Nc1c(C)cccc1C [Compound 17, 2-(4-BROMOBENZYLIDENE)-N-(2,6-DIMETHYLPHENYL)-1-(PROP-2-YN-1-YL)HYDRAZINECARBOXAMIDE] | – | > 12.5 | – | – | > 12.5 | – |
| Cc1ccc(/C=N/NC(=O)Nc2c(C)cccc2C)cc1 [Compound 13k, N^1-(4-METHYLBENZYLIDENE)-N^4-(2,6-DIMETHYLPHENYL)SEMICARBAZONE] | – | 2.9 | 2.9 | – | – | – |

| Structure (SMILES) | protection of cells from LT (in words) | IC50 (Mus musculus, RAW264.7) [µM] | IC50 [1] [µM] | IC50 [µM] | IC50 [2] [µM] | fold less active than 1 |
| --- | --- | --- | --- | --- | --- | --- |
| Cc1cccc(C)c1NC(=O)N/N=C/c1cccs1 [Compound 13w, N^1-(THIOPHENE-2-YLMETHYLENE)-N^4-(2,6-DIMETHYLPHENYL)SEMICARBAZONE] | – | > 25 | – | > 25 | – | – |
| Cc1ccccc1/C=N/NC(=O)Nc1c(C)cccc1C [Compound 13i, N^1-(2-METHYLBENZYLIDENE)-N^4-(2,6-DIMETHYLPHENYL)SEMICARBAZONE] | – | > 25 | > 25 | – | – | – |
| COc1ccc(/C=N/NC(=O)Nc2c(C)cccc2C)cc1 [Compound 13n, N^1-(4-METHOXYBENZYLIDENE)-N^4-(2,6-DIMETHYLPHENYL)SEMICARBAZONE] | – | > 12.5 | > 12.5 | – | – | – |
| Cc1cccc(C)c1NC(=O)NN [Compound 6, N-(2,6-DIMETHYLPHENYL) SEMICARBAZIDE] | did not prevent toxin-induced cell death | – | – | – | – | – |
| Cc1cccc(C)c1NC(=O)N/N=C/c1ccccc1F [Compound 13c, N^1-(2-FLUOROBENZYLIDENE)-N^4-(2,6-DIMETHYLPHENYL)SEMICARBAZONE] | – | 8.2 | 8.23 | – | – | – |
| Cc1cccc(C)c1NC(=O)N/N=C/c1ccc(Br)c(F)c1 [Compound 13aa, N^1-(4-BROMO-3-FLUOROBENZYLIDENE)-N^4-(2,6-DIMETHYLPHENYL)SEMICARBAZONE] | – | 1.5 | – | – | – | – |
| Cc1cccc(C)c1NC(=O)N/N=C/c1ccc(C#N)cc1 [Compound 13s, N^1-(4-CYANOMETHYLBENZYLIDENE)-N^4-(2,6-DIMETHYLPHENYL)SEMICARBAZONE] | – | 2.45 | 2.45 | 2.5 ± 0.3 | – | – |
| Cc1cccc(C)c1NC(=O)N/N=C/c1ccc(C(F)(F)F)cc1 [Compound 13r, N^1-(4-TRIFLUOROMETHYLBENZYLIDENE)-N^4-(2,6-DIMETHYLPHENYL)SEMICARBAZONE] | – | 2.6 ± 0.5 | 2.59 | – | – | – |
| Cc1cccc(C)c1NC(=O)N/N=C/c1ccc(F)cc1F [Compound 13f, N^1-(2,4-DIFLUOROBENZYLIDENE)-N^4-(2,6-DIMETHYLPHENYL)SEMICARBAZONE] | – | 2.1 | 2.14 | – | 2.1 | – |
| Cc1cccc(C)c1NC(=O)N/N=C/c1ccc(I)cc1 [Compound 13q, N^1-(4-IODOBENZYLIDENE)-N^4-(2,6-DIMETHYLPHENYL)SEMICARBAZONE] | – | 1.77 | 1.77 | 1.8 ± 0.3 | – | – |
| Cc1cccc(C)c1NC(=O)N/N=C/c1ccc(Br)o1 [Compound 13v, N^1-(5-BROMOFURAN-2-YLMETHYLENE)-N^4-(2,6-DIMETHYLPHENYL)SEMICARBAZONE] | – | > 25 | – | > 25 | – | – |
| Cc1cccc(C)c1NC(=S)N/N=C/c1ccc(Br)cc1 [Compound 19a, N^1-(4-BROMOBENZYLIDENE)-N^4-(2,6-DIMETHYLPHENYL)THIOSEMICARBAZONE] | – | 1.52 | 1.52 | – | 1.5 | – |
| Cc1cccc(C)c1NC(=O)N/N=C/c1ccc(Br)cc1Cl [Compound 13z, N^1-(4-BROMO-2-CHLOROBENZYLIDENE)-N^4-(2,6-DIMETHYLPHENYL)SEMICARBAZONE] | – | 3.2 | 3.24 | – | – | – |
| Cc1ccc(NC(=O)N/N=C/c2ccc(Br)cc2)c(C)c1 [Compound 9a, N^1-(4-BROMOBENZYLIDENE)-N^4-(2,4-DIMETHYLPHENYL)SEMICARBAZONE] | not protective | > 25 | – | – | – | – |
| Cc1cccc(C)c1NC(=O)N/N=C/c1ccc(F)cc1 [Compound 13e, N^1-(4-FLUOROBENZYLIDENE)-N^4-(2,6-DIMETHYLPHENYL)SEMICARBAZONE] | – | 7 | 7 | – | 7 | – |
| O=C(N/N=C/c1ccc(Cl)cc1)Nc1ccccc1 [Compound 11, N^1-(4-Cl-benzylidene)-N^4-phenylsemicarbazone, reference compound] | not protective | > 25 | – | – | – | – |
| Cc1cccc(C)c1NC(=O)N/N=C/c1ccc(NS(C)(=O)=O)cc1 [Compound 13p, N^1-(4-(N-(4-FORMYLPHENYL)METHANESULFONAMIDE)BENZYLIDENE-N^4-(2,6-DIMETHYLPHENYL)SEMICARBAZONE] | – | > 25 | > 25 | – | – | – |
| COc1cccc(/C=N/NC(=O)Nc2c(C)cccc2C)c1OC [Compound 13g, N^1-(2,3-DIMETHOXYBENZYLIDENE)-N^4-(2,6-DIMETHYLPHENYL)SEMICARBAZONE] | – | > 25 | > 25 | – | – | – |
| C/C(=N\NC(=O)Nc1c(C)cccc1C)c1ccc(Br)cc1 [Compound 15, N^1-(4-BROMOPHENYLETHYLIDENE)-N^4-(2,6-DIMETHYLPHENYL)SEMICARBAZONE] | – | 2.5 | 2.5 | – | 2.5 | – |
| Cc1cccc(/C=N/NC(=O)Nc2c(C)cccc2C)c1 [Compound 13j, N^1-(3-METHYLBENZYLIDENE)-N^4-(2,6-DIMETHYLPHENYL)SEMICARBAZONE] | – | 13.4 | 13.4 | – | – | – |
| Cc1cccc(C)c1NC(=O)N/N=C/c1ccc(Br)s1 [Compound 13x, N^1-(5-BROMOTHIOPHENE-2-YLMETHYLENE)-N^4-(2,6-DIMETHYLPHENYL)SEMICARBAZONE] | – | 1.67 | – | – | 1.7 | – |
